Patent US8822503B2, “2-pyridone compounds” (Taisho Pharmaceutical Co., Ltd, priority 2009, dated 2014)

target: T1, human liver GK (Homo sapiens, UniProt P35557); test: GK activation test; assay type: biochemical; conditions: test compound concentration needed to activate 50% of maximum activation ability; 4 mM 14C-labeled glucose, 2 mM ATP, room temperature, 20 minutes
T1 construct: GST (glutathione S-transferase) (N); made in house; host or cells: E. coli
T1 sequence (P35557 1-466 isoform P35557-2): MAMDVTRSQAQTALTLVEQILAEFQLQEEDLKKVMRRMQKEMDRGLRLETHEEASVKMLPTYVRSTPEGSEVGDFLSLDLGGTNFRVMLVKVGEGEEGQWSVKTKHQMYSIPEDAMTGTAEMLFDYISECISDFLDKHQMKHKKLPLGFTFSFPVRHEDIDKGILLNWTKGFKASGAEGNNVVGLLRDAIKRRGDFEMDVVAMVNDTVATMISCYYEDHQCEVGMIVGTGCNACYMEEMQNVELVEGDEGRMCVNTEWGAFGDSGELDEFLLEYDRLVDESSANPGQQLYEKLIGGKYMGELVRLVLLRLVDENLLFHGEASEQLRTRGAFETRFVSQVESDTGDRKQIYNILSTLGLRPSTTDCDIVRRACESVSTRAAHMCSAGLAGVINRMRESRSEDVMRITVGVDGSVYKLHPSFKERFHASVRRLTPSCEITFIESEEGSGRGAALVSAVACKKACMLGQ
Procedure, shortened: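 GST-tagged human liver GK from E. coli (0.24 μg/well) with 4 mM 14C-glucose, 2 mM ATP in Hepes-KOH pH 7.1, KCl, MgCl2, DTT, 1% DMSO, 20 min room temperature. Labeled glucose 6-phosphate captured on anion resin, eluted and counted. EC50 = concentration giving half of maximal activation.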

EC50 [nM]	SMILES
10 to 500	Cc1ccc(/C(=C/CC2CCCC2)c2ccc(SC3CC3)cc2)[nH]c1=O [Example 1-36, 6-{(1E)-3-Cyclopentyl-1-[4-(cyclopropylsulfanyl)phenyl]prop-1-en-1-yl}-3-methylpyridin-2(1H)-one]
10 to 500	Cc1ccc(/C(=C/CC2CCCC2)c2ccc(S(=O)(=O)C3CC3)cc2)[nH]c1=O [Example 1-37, 6-{(1E)-3-Cyclopentyl-1-[4-(cyclopropylsulfonyl)phenyl]prop-1-en-1-yl}-3-methylpyridin-2(1H)-one]
500 to 3000	O=c1[nH]c(/C(=C/C2CCCC2)c2ccc(CCCCO)cc2)ccc1C(F)(F)F [Example 1-38, 6-{(E)-2-Cyclopentyl-1-[4-(4-hydroxybutyl)phenyl]ethenyl}-3-(trifluoromethyl)pyridin-2(1H)-one]
500 to 3000	CCN(CC)CCCCc1ccc(/C(=C\C2CCCC2)c2ccc(C(F)(F)F)c(=O)[nH]2)cc1 [Example 1-39, 6-[(E)-2-Cyclopentyl-1-{4-[4-(diethylamino)butyl]phenyl}ethenyl]-3-(trifluoromethyl)pyridin-2(1H)-one]
500 to 3000	O=c1[nH]c(/C(=C/C2CCCC2)c2ccc(S(=O)(=O)CCCO)cc2)ccc1C(F)(F)F [Example 1-40, 6-[(E)-2-Cyclopentyl-1-{4-[(3-hydroxypropyl)sulfonyl]phenyl}ethenyl]-3-(trifluoromethyl)pyridin-2(1H)-one]
500 to 3000	CCN(CC)CCCS(=O)(=O)c1ccc(/C(=C\C2CCCC2)c2ccc(C(F)(F)F)c(=O)[nH]2)cc1 [Example 1-41, 6-[(E)-2-Cyclopentyl-1-(4-{[3-(diethylamino)propyl]sulfonyl}phenyl)ethenyl]-3-(trifluoromethyl)pyridin-2(1H)-one]
500 to 3000	CCN(CC)CCCC(=O)c1ccc(/C(=C\C2CCCC2)c2ccc(C(F)(F)F)c(=O)[nH]2)cc1 [Example 1-42, 6-[(E)-2-Cyclopentyl-1-{4-[4-(diethylamino)butanoyl]phenyl}ethenyl]-3-(trifluoromethyl)pyridin-2(1H)-one]
3000 to 10000	CCN(CC)CCCNc1ccc(/C(=C\C2CCCC2)c2ccc(C(F)(F)F)c(=O)[nH]2)cc1 [Example 1-43, 6-[(E)-2-Cyclopentyl-1-(4-{[3-(diethylamino)propyl]amino}phenyl)ethenyl]-3-(trifluoromethyl)pyridin-2(1H)-one]
500 to 3000	CCNCCCOc1ccc(/C(=C\C2CCCC2)c2ccc(C3CC3)c(=O)[nH]2)cc1Cl [Example 1-44, 6-[(E)-1-{3-Chloro-4-[3-(ethylamino)propoxy]phenyl}-2-cyclopentylethenyl]-3-cyclopropylpyridin-2(1H)-one]
500 to 3000	CCN(CC)CCNC(=O)c1ccc(/C(=C\C2CCCC2)c2ccc(C3CC3)c(=O)[nH]2)cc1 [Example 1-45, 4-[(E)-2-Cyclopentyl-1-(5-cyclopropyl-6-oxo-1,6-dihydropyridin-2-yl)ethenyl]-N-[2-(diethylamino)ethyl]benzamide]
500 to 3000	CN1CCN(S(=O)(=O)c2ccc(/C(=C\C3CCCC3)c3ccc(Cl)c(=O)[nH]3)cc2)CC1 [Example 1-46, 3-Chloro-6-[(E)-2-cyclopentyl-1-{4-[(4-methylpiperazin-1-yl)sulfonyl]phenyl}ethenyl]pyridin-2(1H)-one]

The remaining lines, values behind:

SMILES	EC50 [nM]
CCc1ccc(/C(=C/C2CCCC2)c2ccc(S(C)(=O)=O)c(Cl)c2)[nH]c1=O [Example 1-21, 6-{(E)-1-[3-Chloro-4-(methylsulfonyl)phenyl]-2-cyclopentylethenyl}-3-ethylpyridin-2(1H)-one]	10 to 500
Cc1ccc(/C(=C/C2CCCC2)c2ccc(SCCCO)c(Cl)c2)[nH]c1=O [Example 1-22, 6-[(E)-1-{3-Chloro-4-[(3-hydroxypropyl)sulfanyl]phenyl}-2-cyclopentylethenyl]-3-methylpyridin-2(1H)-one]	10 to 500
Cc1ccc(/C(=C/C2CCCC2)c2ccc(S(=O)(=O)CCCO)c(Cl)c2)[nH]c1=O [Example 1-23, 6-[(E)-1-{3-Chloro-4-[(3-hydroxypropyl)sulfonyl]phenyl}-2-cyclopentylethenyl]-3-methylpyridin-2(1H)-one]	10 to 500
CCN(CC)CCCSc1ccc(/C(=C\C2CCCC2)c2ccc(C)c(=O)[nH]2)cc1Cl [Example 1-24, 6-[(E)-1-(3-Chloro-4-{[3-(diethylamino)propyl]sulfanyl}phenyl)-2-cyclopentylethenyl]-3-methylpyridin-2(1H)-one]	10 to 500
CCN(CC)CCCS(=O)(=O)c1ccc(/C(=C\C2CCCC2)c2ccc(C)c(=O)[nH]2)cc1Cl [Example 1-25, 6-[(E)-1-(3-Chloro-4-{[3-(diethylamino)propyl]sulfonyl}phenyl)-2-cyclopentylethenyl]-3-methylpyridin-2(1H)-one]	500 to 3000
CCc1ccc(/C(=C/C2CCCC2)c2ccc(SCCCN(CC)CC)c(Cl)c2)[nH]c1=O [Example 1-26, 6-[(E)-1-(3-Chloro-4-{[3-(diethylamino)propyl]sulfanyl}phenyl)-2-cyclopentylethenyl]-3-ethylpyridin-2(1H)-one]	10 to 500
CCc1ccc(/C(=C/C2CCCC2)c2ccc(S(=O)(=O)CCCN(CC)CC)c(Cl)c2)[nH]c1=O [Example 1-27, 6-[(E)-1-(3-Chloro-4-{[3-(diethylamino)propyl]sulfonyl}phenyl)-2-cyclopentylethenyl]-3-ethylpyridin-2(1H)-one]	10 to 500
CS(=O)(=O)c1ccc(/C(=C\C2CCCC2)c2ccc(C(F)(F)F)c(=O)[nH]2)cc1 [Example 1-28, 6-{(E)-2-Cyclopentyl-1-[4-(methylsulfonyl)phenyl]ethenyl}-3-(trifluoromethyl)pyridin-2(1H)-one]	500 to 3000
O=c1[nH]c(/C(=C/C2CCCC2)c2ccc(SC3CC3)cc2)ccc1-c1ccccc1 [Example 1-29, 6-{(E)-2-Cyclopentyl-1-[4-(cyclopropylsulfanyl)phenyl]ethenyl}-3-phenylpyridin-2(1H)-one]	10 to 500
O=c1[nH]c(/C(=C/C2CCCC2)c2ccc(S(=O)(=O)C3CC3)cc2)ccc1CO [Example 1-30, 6-{(E)-2-Cyclopentyl-1-[4-(cyclopropylsulfonyl)phenyl]ethenyl}-3-(hydroxymethyl)pyridin-2(1H)-one]	10 to 500
CCN1CC(Sc2ccc(/C(=C\C3CCCC3)c3ccc(C)c(=O)[nH]3)cc2)C1 [Example 1-31, 6-[(E)-2-Cyclopentyl-1-{4-[(1-ethylazetidin-3-yl)sulfanyl]phenyl}ethenyl]-3-methylpyridin-2(1H)-one]	500 to 3000
CCN1CC(S(=O)(=O)c2ccc(/C(=C\C3CCCC3)c3ccc(C)c(=O)[nH]3)cc2)C1 [Example 1-32, 6-[(E)-2-Cyclopentyl-1-{4-[(1-ethylazetidin-3-yl)sulfonyl]phenyl}ethenyl]-3-methylpyridin-2(1H)-one]	500 to 3000
COC(=O)c1ccc(/C(=C\C2CCCC2)c2ccc(C)c(=O)[nH]2)cc1 [Example 1-33, Methyl 4-[(E)-2-cyclopentyl-1-(5-methyl-6-oxo-1,6-dihydropyridin-2-yl)ethenyl]benzoate]	500 to 3000
CSc1ccc(/C(=C\C2CCCC2)c2ccc(C)c(=O)[nH]2)cn1 [Example 1-34, 6-{(E)-2-Cyclopentyl-1-[6-(methylsulfanyl)pyridin-3-yl]ethenyl}-3-methylpyridin-2(1H)-one]	500 to 3000
Cc1ccc(/C(=C/C2CCCC2)c2ccc(S(C)(=O)=O)nc2)[nH]c1=O [Example 1-35, 6-{(E)-2-Cyclopentyl-1-[6-(methylsulfonyl)pyridin-3-yl]ethenyl}-3-methylpyridin-2(1H)-one]	500 to 3000
